Target: Cdk2 (Homo sapiens, UniProt P24941)
Assay: p-Cl-ANS fluorescent binding assay
Conditions: for cooperativity with the allosteric ANS site: based on p-Cl-ANS fluorescent binding studies; for effect on the binding (fluorescence) of p-Cl-ANS: orthosteric ligand titrated into Cdk2 with p-Cl-ANS

cooperativity with the allosteric ANS site | effect on the binding (fluorescence) of p-Cl-ANS | SMILES
only weakly cooperative, if at all | little effect | Nc1ncnc2c1ncn2[C@@H]1O[C@H](COP(=O)(O)OP(=O)(O)NP(=O)(O)O)[C@@H](O)[C@H]1O [AMP-PNP, adenylyl-imidodiphosphate]
only weakly cooperative, if at all | little effect | Nc1ncnc2c1ncn2[C@@H]1O[C@H](COP(=O)(O)OP(=O)(O)OP(=O)(O)O)[C@@H](O)[C@H]1O [ATP]

Source: paper PMC8204636 (ACS chemical biology, 2020)
